# Source: ChEMBL document CHEMBL1201862, “PubChem BioAssay data set” (2004)
# Activity calls are given as the source filed them.
# Assays:
# [1] = target: T1, Rac GTPase-activating protein 1 (Homo sapiens, UniProt Q9H0H5); test: MgcRacGAP GTPase-activating activity inhibitors, confirmation, biochemical, ADP Hunter fluorescence, primary and confirmatory (AID 624330); format: functional
# T1 sequence (Q9H0H5 whole entry): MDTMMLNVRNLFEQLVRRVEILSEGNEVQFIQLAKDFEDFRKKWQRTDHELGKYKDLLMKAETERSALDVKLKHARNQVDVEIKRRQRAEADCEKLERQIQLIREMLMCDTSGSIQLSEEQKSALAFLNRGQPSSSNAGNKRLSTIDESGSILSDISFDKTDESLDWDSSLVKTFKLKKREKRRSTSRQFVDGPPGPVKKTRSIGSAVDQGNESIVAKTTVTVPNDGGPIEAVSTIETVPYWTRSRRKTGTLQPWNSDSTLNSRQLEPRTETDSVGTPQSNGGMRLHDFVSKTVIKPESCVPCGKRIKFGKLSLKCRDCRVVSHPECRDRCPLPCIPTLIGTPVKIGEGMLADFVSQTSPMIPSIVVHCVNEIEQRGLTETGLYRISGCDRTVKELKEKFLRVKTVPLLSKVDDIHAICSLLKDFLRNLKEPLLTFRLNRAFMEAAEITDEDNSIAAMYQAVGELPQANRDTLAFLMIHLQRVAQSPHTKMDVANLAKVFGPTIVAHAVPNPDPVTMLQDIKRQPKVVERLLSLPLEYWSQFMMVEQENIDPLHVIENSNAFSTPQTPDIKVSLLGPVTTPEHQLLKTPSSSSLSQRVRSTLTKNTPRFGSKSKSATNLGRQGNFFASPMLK
# [2] = target: Glucose-6-phosphate 1-dehydrogenase (Homo sapiens, UniProt P11413); test: human G6PD enzyme inhibitors, dose response, selectivity assay for P. falciparum G6PD inhibitor project, biochemical, fluorescence (AID 504792); format: functional
# [3] = target: T2, Short transient receptor potential channel 4 (Mus musculus, UniProt Q9QUQ5); test: mouse TRPC4 channel inhibitors, dose response, cell-based, HEK293 TRPC4/mu-opioid, Fluo-4 calcium (AID 434942); format: functional;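 also: potency of inhibitors blocking the TRPC4 calcium response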
# T2 sequence (Q9QUQ5 whole entry): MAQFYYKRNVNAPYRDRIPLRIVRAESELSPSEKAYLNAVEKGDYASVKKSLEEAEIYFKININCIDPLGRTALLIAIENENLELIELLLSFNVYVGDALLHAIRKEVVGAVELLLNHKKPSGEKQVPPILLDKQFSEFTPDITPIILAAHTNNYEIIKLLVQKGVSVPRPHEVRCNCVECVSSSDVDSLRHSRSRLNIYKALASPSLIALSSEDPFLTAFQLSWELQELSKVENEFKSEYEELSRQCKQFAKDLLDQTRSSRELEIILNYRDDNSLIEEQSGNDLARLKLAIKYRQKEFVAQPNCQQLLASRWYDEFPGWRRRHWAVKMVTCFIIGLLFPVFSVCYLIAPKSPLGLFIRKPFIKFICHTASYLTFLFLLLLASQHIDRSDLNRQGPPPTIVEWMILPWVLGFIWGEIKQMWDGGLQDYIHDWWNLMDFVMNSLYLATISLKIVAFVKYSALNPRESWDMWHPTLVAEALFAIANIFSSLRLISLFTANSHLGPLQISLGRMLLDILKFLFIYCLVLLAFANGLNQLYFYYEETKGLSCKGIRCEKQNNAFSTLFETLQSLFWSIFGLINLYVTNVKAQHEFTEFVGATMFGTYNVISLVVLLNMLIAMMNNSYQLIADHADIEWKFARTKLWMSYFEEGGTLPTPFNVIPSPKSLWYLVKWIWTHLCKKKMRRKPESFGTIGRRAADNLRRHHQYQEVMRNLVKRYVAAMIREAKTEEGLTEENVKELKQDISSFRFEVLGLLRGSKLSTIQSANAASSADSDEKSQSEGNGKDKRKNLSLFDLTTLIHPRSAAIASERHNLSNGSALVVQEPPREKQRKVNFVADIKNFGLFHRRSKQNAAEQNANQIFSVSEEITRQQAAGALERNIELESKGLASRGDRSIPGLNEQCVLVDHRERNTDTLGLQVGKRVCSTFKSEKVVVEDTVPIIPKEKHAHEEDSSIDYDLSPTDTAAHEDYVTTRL
# [4] = target: FAD-linked sulfhydryl oxidase ALR (Homo sapiens, UniProt P55789); test: inhibitors of human ALR sulfhydryl oxidase, dose response, biochemical, H2O2 detection, luminescence, cherry-pick (AID 493248)
# [5] = target: T3, High affinity choline transporter 1 (Homo sapiens, UniProt Q9GZV3); test: CHT inhibitors, dose response, cell-based, 5-point CRC, membrane potential dye (AID 504840); format: functional
# T3 sequence (Q9GZV3 whole entry): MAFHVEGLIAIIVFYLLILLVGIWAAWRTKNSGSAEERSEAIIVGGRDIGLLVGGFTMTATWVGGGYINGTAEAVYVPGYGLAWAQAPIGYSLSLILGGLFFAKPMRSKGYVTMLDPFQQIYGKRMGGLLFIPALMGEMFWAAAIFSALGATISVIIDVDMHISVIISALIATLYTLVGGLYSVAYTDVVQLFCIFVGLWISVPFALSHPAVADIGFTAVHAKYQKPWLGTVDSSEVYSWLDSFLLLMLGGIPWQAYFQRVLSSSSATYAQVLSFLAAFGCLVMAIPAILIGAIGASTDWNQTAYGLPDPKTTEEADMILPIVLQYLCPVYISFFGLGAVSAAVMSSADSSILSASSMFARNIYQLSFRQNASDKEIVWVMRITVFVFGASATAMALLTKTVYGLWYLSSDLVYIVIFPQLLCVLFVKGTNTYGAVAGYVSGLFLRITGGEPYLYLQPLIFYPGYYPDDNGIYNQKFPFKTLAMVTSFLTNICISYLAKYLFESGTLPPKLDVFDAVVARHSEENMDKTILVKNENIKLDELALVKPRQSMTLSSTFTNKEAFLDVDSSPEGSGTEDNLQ
# [6] = growth suppression of PTEN-null colon cells, dose response, cell-based, HCT116 PTEN knockout (AID 1047); format: functional;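 also: HCT116 colon tumor cells with PTEN knocked out; cells exposed to compound for 60 hours before readout; potency for loss of cell viability measured by luminescence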
# [7] = growth suppression of beta-catenin-knockout colon cells, dose response, cell-based, HCT116, human colon tumor (AID 1045); format: functional;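 also: HCT116 colon tumor cells with beta catenin knocked out; cells exposed to compound for 60 hours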
# [8] = microbe, parasite or virus in culture; format: functional; conditions: Mycobacterium tuberculosis
# [9] = target: Cytochrome P450 2D6 (Homo sapiens, UniProt P10635);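 also: CYP2D6 member of a cytochrome P450 panel assay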
# [10] = target: 26S proteasome non-ATPase regulatory subunit 14 (Homo sapiens, UniProt O00487); test: inhibition of proteasome subunit RPN11 – biochemical, fluorescence polarization, uHTS hits, confirmation (AID 602368); format: functional
# [11] = target: 72 kDa type IV collagenase (Homo sapiens, UniProt P08253); test: Dose Response validation of uHTS RPN11 inhibitor hits using a MMP-2 Fluorescence assay.; format: functional
# [12] = target: T4, DNA repair protein RAD52 homolog (Homo sapiens, UniProt P43351); format: functional, biochemical
# T4 sequence (P43351 whole entry): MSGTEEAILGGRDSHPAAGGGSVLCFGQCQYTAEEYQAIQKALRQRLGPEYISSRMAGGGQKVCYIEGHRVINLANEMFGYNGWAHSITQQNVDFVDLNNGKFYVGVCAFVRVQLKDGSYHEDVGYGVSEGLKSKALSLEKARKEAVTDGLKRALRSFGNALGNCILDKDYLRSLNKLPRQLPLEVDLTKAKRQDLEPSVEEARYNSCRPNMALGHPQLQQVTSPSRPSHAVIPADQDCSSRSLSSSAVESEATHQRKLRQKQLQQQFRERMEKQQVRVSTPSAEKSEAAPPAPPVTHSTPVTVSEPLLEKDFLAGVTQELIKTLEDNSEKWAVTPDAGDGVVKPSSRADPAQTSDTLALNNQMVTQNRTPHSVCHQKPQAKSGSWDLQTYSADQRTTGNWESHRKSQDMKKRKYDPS
# [13] = target: Prothrombin (Bos taurus, UniProt P00735); test: thrombin inhibition, dose response, biochemical, fluorescence polarization, uHTS hits (AID 602369); format: functional
# [14] = cells; format: functional
# [15] = target: Genome polyprotein (dengue virus type 2, UniProt P29990); test: Dengue-2 NS5 methyltransferase inhibitors, primary screen, biochemical, confirmation dose response (AID 588689); format: functional
# [16] = inhibitors of Vif binding to APOBEC3G peptide, primary screen, biochemical, TR-FRET, GST-Vif 1-94, biotin-A3G peptide, dose response retest (AID 1117319); format: functional;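 also: TR-FRET signal of purified GST-Vif binding a biotinylated A3G peptide; inhibitors lower the FRET signal by blocking Vif and A3G binding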
# [17] = target: Large T antigen (Simian virus 40, UniProt P03070); format: functional, Betapolyomavirus macacae;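 also: Confirmatory-stage PubChem screen for compounds that inhibit SV40 T antigen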
# [18] = tested on: BJ; test: cytotoxicity toward BJ-TERT-LT-ST fibroblasts, dose response, cell-based, RAS-independent, luminescence (AID 1935); format: functional; conditions: Homo sapiens;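 also: BJ fibroblasts immortalized with TERT plus LT and ST oncogenes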
# [19] = tested on: BJ; test: cytotoxicity toward BJ-TERT fibroblasts, dose response, cell-based, RAS-independent, luminescence (AID 1933); format: functional; conditions: Homo sapiens
# [20] = tested on: BJ; test: cells; format: functional, cell-based; conditions: Homo sapiens
# [21] = cytotoxicity toward DRD oncogenic fibroblasts, dose response, cell-based, non-viral oncogenic, luminescence (AID 1934); format: functional; conditions: Homo sapiens
# Glucose-6-phosphate 1-dehydrogenase, sequence (P11413 whole entry): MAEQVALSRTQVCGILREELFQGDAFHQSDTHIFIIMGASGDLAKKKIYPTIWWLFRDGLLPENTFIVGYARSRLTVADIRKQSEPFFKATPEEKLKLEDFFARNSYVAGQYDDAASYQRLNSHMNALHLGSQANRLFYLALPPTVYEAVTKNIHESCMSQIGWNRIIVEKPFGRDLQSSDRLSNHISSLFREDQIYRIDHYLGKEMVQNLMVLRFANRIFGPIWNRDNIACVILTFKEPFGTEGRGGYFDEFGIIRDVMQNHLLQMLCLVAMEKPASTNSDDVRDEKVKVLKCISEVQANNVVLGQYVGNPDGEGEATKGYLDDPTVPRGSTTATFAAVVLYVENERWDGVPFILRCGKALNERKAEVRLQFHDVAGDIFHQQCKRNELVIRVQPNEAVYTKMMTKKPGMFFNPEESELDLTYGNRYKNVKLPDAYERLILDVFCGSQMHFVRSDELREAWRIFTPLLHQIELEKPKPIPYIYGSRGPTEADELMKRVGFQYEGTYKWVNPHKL
# 26S proteasome non-ATPase regulatory subunit 14, sequence (O00487 whole entry): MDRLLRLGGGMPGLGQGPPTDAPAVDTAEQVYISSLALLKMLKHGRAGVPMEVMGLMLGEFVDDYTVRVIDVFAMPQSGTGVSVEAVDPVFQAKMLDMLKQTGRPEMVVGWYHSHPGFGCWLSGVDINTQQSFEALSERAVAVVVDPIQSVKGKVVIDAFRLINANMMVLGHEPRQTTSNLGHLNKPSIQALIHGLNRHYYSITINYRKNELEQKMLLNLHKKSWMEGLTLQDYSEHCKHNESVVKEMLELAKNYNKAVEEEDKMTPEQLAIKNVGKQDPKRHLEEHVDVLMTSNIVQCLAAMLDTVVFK
# 72 kDa type IV collagenase, sequence (P08253 whole entry): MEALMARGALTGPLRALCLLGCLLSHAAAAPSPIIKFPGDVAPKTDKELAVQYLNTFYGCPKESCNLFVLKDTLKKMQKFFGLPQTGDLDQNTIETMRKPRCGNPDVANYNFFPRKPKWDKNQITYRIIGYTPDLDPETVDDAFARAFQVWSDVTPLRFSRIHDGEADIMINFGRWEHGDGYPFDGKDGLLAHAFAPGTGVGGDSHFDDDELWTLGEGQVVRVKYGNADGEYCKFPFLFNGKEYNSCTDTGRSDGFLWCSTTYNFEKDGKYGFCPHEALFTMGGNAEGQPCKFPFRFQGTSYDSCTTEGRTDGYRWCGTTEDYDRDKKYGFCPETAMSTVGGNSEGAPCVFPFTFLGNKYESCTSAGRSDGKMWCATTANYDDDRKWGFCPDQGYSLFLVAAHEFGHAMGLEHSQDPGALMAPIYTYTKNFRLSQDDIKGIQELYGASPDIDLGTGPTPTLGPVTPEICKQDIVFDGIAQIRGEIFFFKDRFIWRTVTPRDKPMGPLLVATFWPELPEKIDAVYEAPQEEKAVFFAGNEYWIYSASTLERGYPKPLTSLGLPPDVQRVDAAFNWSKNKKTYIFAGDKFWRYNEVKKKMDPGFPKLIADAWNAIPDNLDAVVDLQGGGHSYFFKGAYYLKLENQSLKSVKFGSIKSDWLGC
# FAD-linked sulfhydryl oxidase ALR, sequence (P55789 whole entry): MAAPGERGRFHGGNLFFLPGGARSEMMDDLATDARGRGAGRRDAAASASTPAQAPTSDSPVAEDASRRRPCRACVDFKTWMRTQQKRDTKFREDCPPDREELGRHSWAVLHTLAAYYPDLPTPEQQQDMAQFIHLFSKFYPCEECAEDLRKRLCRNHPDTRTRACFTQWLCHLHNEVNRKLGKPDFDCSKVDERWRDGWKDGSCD
# Genome polyprotein, sequence (P29990 2492-3391 limits assumed): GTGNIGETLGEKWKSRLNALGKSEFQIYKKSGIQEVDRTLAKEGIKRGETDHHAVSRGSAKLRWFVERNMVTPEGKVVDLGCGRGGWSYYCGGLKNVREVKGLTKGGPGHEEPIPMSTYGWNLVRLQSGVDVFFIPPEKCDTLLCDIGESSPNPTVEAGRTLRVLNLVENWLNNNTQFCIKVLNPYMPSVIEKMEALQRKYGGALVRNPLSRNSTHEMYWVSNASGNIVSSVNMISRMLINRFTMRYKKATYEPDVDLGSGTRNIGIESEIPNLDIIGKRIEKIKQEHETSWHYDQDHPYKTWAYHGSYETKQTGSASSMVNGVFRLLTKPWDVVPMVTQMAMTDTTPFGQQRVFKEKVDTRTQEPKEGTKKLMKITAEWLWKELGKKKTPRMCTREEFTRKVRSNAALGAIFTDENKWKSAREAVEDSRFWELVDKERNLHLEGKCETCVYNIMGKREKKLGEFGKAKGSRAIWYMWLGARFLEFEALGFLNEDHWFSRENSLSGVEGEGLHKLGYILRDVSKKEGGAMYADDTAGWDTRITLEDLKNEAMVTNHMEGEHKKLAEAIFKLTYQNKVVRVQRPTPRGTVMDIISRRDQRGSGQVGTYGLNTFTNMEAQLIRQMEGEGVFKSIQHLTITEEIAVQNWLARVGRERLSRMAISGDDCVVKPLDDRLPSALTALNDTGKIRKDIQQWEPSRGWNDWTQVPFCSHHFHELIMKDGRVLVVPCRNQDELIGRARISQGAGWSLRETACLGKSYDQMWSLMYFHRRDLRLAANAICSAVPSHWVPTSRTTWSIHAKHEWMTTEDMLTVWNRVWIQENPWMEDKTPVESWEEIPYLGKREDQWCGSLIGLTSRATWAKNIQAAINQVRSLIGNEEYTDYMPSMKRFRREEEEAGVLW
# Cytochrome P450 2D6, sequence (P10635 whole entry): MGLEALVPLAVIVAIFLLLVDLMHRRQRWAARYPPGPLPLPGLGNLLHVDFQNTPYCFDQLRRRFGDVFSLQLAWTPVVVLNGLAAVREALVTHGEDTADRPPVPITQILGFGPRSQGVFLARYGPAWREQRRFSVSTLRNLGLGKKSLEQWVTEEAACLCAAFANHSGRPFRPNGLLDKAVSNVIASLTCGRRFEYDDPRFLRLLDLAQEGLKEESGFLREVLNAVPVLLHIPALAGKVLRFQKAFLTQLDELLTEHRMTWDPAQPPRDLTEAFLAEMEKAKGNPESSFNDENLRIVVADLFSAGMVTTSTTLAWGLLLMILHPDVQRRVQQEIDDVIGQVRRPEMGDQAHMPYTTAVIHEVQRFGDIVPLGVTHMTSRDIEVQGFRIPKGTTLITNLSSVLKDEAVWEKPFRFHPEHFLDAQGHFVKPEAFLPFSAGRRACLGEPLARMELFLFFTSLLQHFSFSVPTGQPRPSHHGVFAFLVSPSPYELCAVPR
# Large T antigen, sequence (P03070 whole entry): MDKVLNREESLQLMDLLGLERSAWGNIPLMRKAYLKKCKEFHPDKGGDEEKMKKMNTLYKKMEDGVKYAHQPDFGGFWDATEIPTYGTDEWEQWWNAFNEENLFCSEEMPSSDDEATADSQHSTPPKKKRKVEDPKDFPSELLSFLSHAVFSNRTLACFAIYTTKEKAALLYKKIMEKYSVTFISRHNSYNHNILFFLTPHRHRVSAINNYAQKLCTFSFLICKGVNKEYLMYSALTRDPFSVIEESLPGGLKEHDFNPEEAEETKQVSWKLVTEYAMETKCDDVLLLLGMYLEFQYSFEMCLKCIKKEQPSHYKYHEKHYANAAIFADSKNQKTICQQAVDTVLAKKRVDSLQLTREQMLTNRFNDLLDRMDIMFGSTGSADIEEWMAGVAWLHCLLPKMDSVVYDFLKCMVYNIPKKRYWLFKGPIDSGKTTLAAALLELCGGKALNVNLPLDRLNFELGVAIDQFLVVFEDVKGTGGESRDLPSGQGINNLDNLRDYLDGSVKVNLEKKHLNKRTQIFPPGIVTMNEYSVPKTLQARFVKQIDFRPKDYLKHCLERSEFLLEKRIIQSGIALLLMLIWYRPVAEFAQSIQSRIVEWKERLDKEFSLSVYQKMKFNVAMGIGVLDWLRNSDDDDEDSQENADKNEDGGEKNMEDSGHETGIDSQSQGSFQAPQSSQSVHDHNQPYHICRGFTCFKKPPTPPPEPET
smiles,measurement,setting,value
Cn1c(=O)[nH]c(=O)c2c1nc(S)n2CCCc1ccccc1,IC50,[1],19.7 µM (active)
same,IC50,[2],> 80 µM (inactive)
Cc1cccc(NC(=O)CSc2nnc(-c3cc(C)n(-c4ccccc4)c3C)o2)c1C,EC50,[3],2.11 µM (active)
N#CCCn1cc(CNCc2ccccc2)c(-c2cccc([N+](=O)[O-])c2)n1,EC50,[3],3.76 µM (active)
COc1ccc(O)c(-c2cc(-c3ccccc3[N+](=O)[O-])[nH]n2)c1,AC50,[4],4.33 µM (active)
COc1ccc(Cn2cnc3c([N+](=O)[O-])c(C)c(C)cc32)cc1,IC50,[5],12.3 µM (active)
CCOc1cc(CNCCCN2CCOCC2)cc(Br)c1OCC(=O)Nc1cccc(C(F)(F)F)c1,EC50,[6],9.96 µM (active)
same,EC50,[7],7.97 µM (active)
same,EC50,[3],6.68 µM (active)
same,CC50,[8],12.4 µM (active)
same,AC50,[9],14.1 µM (inconclusive)
CCN(CC)c1ccc([C@H]2[C@@H]3CCCC[C@]3(O)CCN2CC(=O)NCc2ccco2)cc1,AC50,[4],1.54 µM (active)
Cc1c(P(=S)(c2ccccc2)c2ccccc2)[n+]2ccccc2n1C,IC50,[10],5.42 µM (active)
same,IC50,[11],> 100 µM (inactive)
same,AC50,[12],10.4 µM (active)
same,IC50,[13],62.8 µM (active)
CCN1CCN(c2nc(C)nc3c2sc(=S)n3C)CC1,IC50,[2],> 80 µM (inactive)
O=C1c2ccccc2S(=O)(=O)c2cc(N3CCOCC3)ccc21,IC50,[10],10.9 µM (active)
same,IC50,[11],> 100 µM (inactive)
same,IC50,[13],24 µM (active)
CCc1ccc(NC(=O)CCc2nc3sc4c(c3c(=O)[nH]2)CCCC4)cc1,IC50,[10],37.6 µM (active)
same,IC50,[11],> 100 µM (inactive)
same,IC50,[13],35.9 µM (active)
CCOc1ccc(/C=N/OCC(=O)Nc2ccc3c(c2)OCO3)cc1,IC50,[14],18.1 µM (active)
CC1(C)OC(c2ccccc2)=C/C(=C\C=N\NC(=O)c2ccncc2)O1,IC50,[14],1.06 µM (active)
O=C(CCCSc1nc2ccccc2s1)NC1=NCCS1,IC50,[5],12 µM (active)
CCOC(=O)C1(CC2CC2)CCN(Cc2cc(Cl)c(O)c(OC)c2)CC1,EC50,[3],3.76 µM (active)
Cc1cc(O)c(C(C)C)cc1N=Cc1ccc([N+](=O)[O-])cc1,IC50,[15],90.1 µM (active)
same,IC50,[2],44.4 µM (inactive)
O=C(O)c1ccccc1NC(=O)c1cc(-c2ccccc2)nc2ccccc12,AC50,[4],0.703 µM (active)
c1coc(CNc2nc(-c3cccs3)cs2)c1,IC50,[16],> 100 µM (active)
CCOc1cc(/C=C2\SC(=S)N(NS(=O)(=O)c3ccc(C)cc3)C2=O)ccc1O,IC50,[10],36.9 µM (active)
same,IC50,[11],73.8 µM (active)
same,IC50,[13],30.4 µM (active)
COc1cc(C(F)(F)F)nc2c(Br)c(C(C)(C)C)nn12,EC50,[3],1.5 µM (active)
COc1ccc(-c2cn3cc(C)ccc3n2)cc1Br,IC50,[2],> 80 µM (inactive)
CC(=O)N1CCN(c2ccc(NCc3cccc4ccccc34)cc2)CC1,IC50,[17],10.1 µM (active)
same,AC50,[4],1.36 µM (active)
CCOC(=O)N1CCN(C(=O)CCCn2c(=O)[nH]c3ccccc3c2=O)CC1,IC50,[5],13.2 µM (active)
COC(=O)CN1C(=O)C(O)=C(C(C)=O)C1c1ccc([N+](=O)[O-])cc1 (stereo not given),IC50,[16],> 100 µM (active)
COc1cc(C(=O)Nc2ccc3ccccc3c2)cc(OC)c1OC,EC50,[18],1.44 µM (active)
same,EC50,[19],3.2 µM (active)
same,EC50,[20],> 150 µM (not active)
same,EC50,[21],1.33 µM (active)
COc1ccc(C(C(C(=O)c2cccs2)N2CCOCC2)N2CCOCC2)cc1OC (stereo not given),IC50,[16],> 100 µM (active)
Oc1ccc(Br)cc1CN1CCCCCCC1,AC50,[4],7.63 µM (active)
CCC(=O)N1CCN(c2cc3c(cc2F)c(=O)c(C(=O)O)cn3CC)CC1,IC50,[14],6.76 µM (active)
Cc1ccc(CSc2nnc(CCNC(=O)OC(C)(C)C)o2)cc1,IC50,[5],12.9 µM (active)
CC(=O)Nc1ccc(NC(=O)c2sc3nc4c(c(-c5ccc(C)cc5)c3c2N)CCC4)cc1,IC50,[16],> 100 µM (active)
O=C(c1ccc(-n2cnnn2)cc1)N1CCOCC1,IC50,[16],> 100 µM (active)
